Earlier results, collected in US20030180282A1, “Method of treatment of thrombotic events” (priority 2002, published 2003).
Residues, ends and D or L forms follow the SMILES beside them.

Key:
[1] = coadministration with thrombolytic therapy

SMILES	incidence of death and reinfarction (IMPACT-AMI, all patients randomized, placebo 7.3%)	major hemorrhage (in vivo)	effect on reocclusion and recurrent ischemia [1]
N=C(N)NCCCC[C@@H]1NC(=O)CCSSC[C@@H](C(N)=O)NC(=O)[C@@H]2CCCN2C(=O)[C@H](Cc2c[nH]c3ccccc23)NC(=O)[C@H](CC(=O)O)NC(=O)CNC1=O [eptifibatide] (HELM PEPTIDE1{[O=C(CCS[*:3])[*:2]].[N=C(N)NCCCC[C@H](N[*:1])C(=O)[*:2]].G.D.W.P.C.[am]}$PEPTIDE1,PEPTIDE1,1:R3-7:R3$$$V2.0)	8.0%	7.1%	
CC(=O)Oc1ccccc1C(=O)O [aspirin]			approximate halving of frequency
